# Source: US11369565B2, “Amino-pyrimidine skeletal muscle modulators” (Cytokinetics, Inc., priority 2010, dated 2022)
# Tested on: rabbit skeletal myofibrils (approximately 90% fast fibers)
# Experiment: Activation of fast skeletal myofibrils (PUMA coupled-enzyme ATPase assay at pCa25)
# Assay type: biochemical
# Conditions: concentration at which the compound increased the enzymatic activity by 40%; calcium at pCa25; PM12 buffer pH 6.8
# Method: Preparation of fast skeletal myofibrils. Rabbit skeletal myofibrils were prepared based upon the method of Herrmann et al. (Biochem. 32(28):7255-7263(1993). Myofibrils were prepared from rabbit psoas muscle purchased from Pel-Freez Biologicals (Arkansas) within 2 days of ordering, stored on ice. Minced muscle was homogenized in 10 volumes of ice-cold “standard” buffer (50 mM Tris, pH 7.4, 0.1 M potassium acetate, 5 mM KCl, 2 mM DTT, 0.2 mM PMSF, 10 μM leupeptin, 5 μM pepstatin, and 0.5 mM sodium azide) containing 5 mM EDTA and 0.5% Triton X-100 using an Omni-Macro homogenizer. Myofibrils were recovered by low speed centrifugation (3000 rpm for 10 minutes) and washed 2 times in the Triton X-100 containing buffer to ensure removal of cellular membrane. Following the Triton washes, myofibrils were washed 3 times in “standard” buffer containing 2 mM magnesium acetate. A final wash in assay buffer (12 mM PIPES, pH 6.8, 60 mM KCl, 1 mM DTT) was performed and brought to 10% sucrose for flash freezing in liquid nitrogen and storage at −80° C.
# Activation of Fast Skeletal Myofibrils. Fast fiber activators were identified by measuring the enzymatic activity of muscle myofibril preparations using the proprietary PUMA™ (see, e.g., U.S. Pat. Nos. 6,410,254, 6,743,599, 7,202,051, and 7,378,254) assay system. Myofibril preparations consisted of rabbit skeletal muscle (approximately 90% fast fibers) that had been mechanically homogenized and washed with a detergent (triton X-100) to remove cellular membranes. This preparation retained all of the sarcomeric components in a native conformation and the enzymatic activity was still regulated by calcium. Compounds were tested using a myofibril suspension and a level of calcium sufficient to increase enzymatic activity of the myofibrils to 25% of their maximal rate (termed pCa25). Enzymatic activity was tracked via a pyruvate kinase and lactate dehydrogenase-coupled enzyme system. This assay regenerates myosin-produced ADP into ATP by oxidizing NADH, producing an absorbance change at 340 nm. The buffering system was 12 mM Pipes, 2 mM MgCl2, 1 mM DTT at pH 6.8 (PM12 buffer).
row,SMILES,Mean AC1.4
1,CC(C)(C)OC(=O)NCC(=O)NCc1cnn(-c2cnc(NC(C)(C)c3ncccc3Cl)nc2)c1 [2-[(tert-butoxy)carbonylamino]-N-{[1-(2-{[1-(3-chloro(2-pyridyl))-isopropyl]amino}pyrimidin-5-yl)pyrazol-4-yl]methyl}acetamide],D (D=>20 uM)
2,CC(C)(Nc1ncc(-n2cc(CNC(=O)CN)cn2)cn1)c1ncccc1Cl [2-amino-N-{[1-(2-{[1-(3-chloro(2-pyridyl))-isopropyl]amino)pyrimidin-5-yl)pyrazol-4-yl]methyl]acetamide],B (B=1-10 uM)
3,"CC(C)(Nc1ncc(-c2nc(CNC(=O)CN)cs2)cn1)c1ncccc1F [2-amino-N-{[2-(2-{[1-(3-fluoro(2-pyridyl))-isopropyl]amino}pyrimidin-5-yl)(1,3-thiazol-4-yl)]methyl}acetamide]",D (D=>20 uM)
4,"CC(C)(Nc1ncc(-c2ncc(CNC(=O)CN)s2)cn1)c1ncccc1F [2-amino-N-{[2-(2-{[1-(3-fluoro(2-pyridyl))-isopropyl]amino}pyrimidin-5-yl)(1,3-thiazol-5-yl)]methyl}acetamide]",D (D=>20 uM)
5,"NC(=O)Cc1cnc(-c2cnc(NC[C@]3(c4ncccc4Cl)C[C@H](F)C3)nc2)s1 [2-{2-[2-({[1-(3-chloro(2-pyridyl))-3-fluorocyclobutyl]methyl}amino)pyrimidin-5-yl]-1,3-thiazol-5-yl}acetamide]",B (B=1-10 uM)
6,NC(=O)Cc1ccccc1-c1cnc(NC[C@]2(c3ncccc3F)C[C@H](F)C2)nc1 [2-{2-[2-({[3-fluoro-1-(3-fluoro(2-pyridyl))cyclobutyl)]methyl}amino)pyrimidin-5-yl]phenyl)acetamide],C (C=10-20 uM)
7,"NC(=O)Cc1cnc(-c2cnc(NC[C@]3(c4ncccc4F)C[C@H](F)C3)nc2)s1 [2-{2-[2-({[3-fluoro-1-(3-fluoro(2-pyridyl))cyclobutyl]methyl)amino)pyrimidin-5-yl]-1,3-thiazol-5-yl}acetamide]",B (B=1-10 uM)
8,"NC(=O)Cc1cnc(-c2cnc(NCC3(c4ncccc4Cl)CCC3)nc2)s1 [2-{2-[2-({[(3-chloro-2-pyridyl)cyclobutyl]methyl}amino)pyrimidin-5-yl]-1,3-thiazol-5-yl}acetamide]",A (A=<1 uM)
9,"NC(=O)Cc1cnc(-c2cnc(NCC3(c4ncccc4F)CCC3)nc2)s1 [2-{2-[2-({[(3-fluoro-2-pyridyl)cyclobutyl]methyl}amino)pyrimidin-5-yl]-1,3-thiazol-5-yl}acetamide]",B (B=1-10 uM)
10,"N#CCc1cnc(-c2cnc(NCC3(c4ncccc4F)CCC3)nc2)s1 [2-{2-[2-({[(3-fluoro-2-pyridyl)cyclobutyl]methyl}amino)pyrimidin-5-yl]-1,3-thiazol-5-yl}ethanenitrile]",B (B=1-10 uM)
11,Cc1nc(NC[C@]2(c3ncccc3F)C[C@H](F)C2)ncc1-c1cccc(CC(N)=O)c1 [2-{3-[2-({[3-fluoro-1-(3-fluoro(2-pyridyl))cyclobutyl]methyl}amino)-4-methylpyrimidin-5-yl]phenyl}acetamide],C (C=10-20 uM)
12,Cc1nc(NC[C@]2(c3ncccc3F)C[C@H](F)C2)ncc1-c1ccc(CC(N)=O)cc1 [2-{4-[2-({[3-fluoro-1-(3-fluoro(2-pyridyl))cyclobutyl]methyl}amino)-4-methylpyrimidin-5-yl]phenyl}acetamide],B (B=1-10 uM)
13,Cc1nc(NC[C@]2(c3ncccc3F)C[C@H](F)C2)ncc1-c1ccc(CC(=O)O)cc1 [2-{4-[2-({[3-fluoro-1-(3-fluoro(2-pyridyl))cyclobutyl]methyl}amino)-4-methylpyrimidin-5-yl]phenyl}acetic acid],D (D=>20 uM)
14,CC(C)(Nc1ncc(C#N)cn1)c1ncccc1Cl [2-{[1-(3-chloro(2-pyridyl))-isopropyl]amino}pyrimidine-5-carbonitrile],D (D=>20 uM)
15,CC(C)(Nc1ncc(C(N)=O)cn1)c1ncccc1Cl [2-{[1-(3-chloro(2-pyridyl))-isopropyl]amino}pyrimidine-5-carboxamide],D (D=>20 uM)
16,"CC(C)(CNc1ncc2c(n1)CN(C(N)=O)CC2)c1ccc(F)cc1 [2-{[2-(4-fluorophenyl)-2-methylpropyl]amino}-5,6,7,8-tetrahydropyridino[3,4-d]pyrimidine-7-carboxamide]",D (D=>20 uM)
17,"CC(C)(CNc1ncc2c(n1)CCN(S(C)(=O)=O)C2)c1ccc(F)cc1 [2-{[2-(4-fluorophenyl)-2-methylpropyl]amino}-6-(methylsulfonyl)-5,6,7,8-tetrahydropyridino[4,3-d]pyrimidine]",B (B=1-10 uM)
18,"CC(C)(CNc1ncc2c(n1)CN(S(C)(=O)=O)CC2)c1ccc(F)cc1 [2-{[2-(4-fluorophenyl)-2-methylpropyl]amino}-7-(methylsulfonyl)-5,6,7,8-tetrahydropyridino[3,4-d]pyrimidine]",C (C=10-20 uM)
19,O=C(O)CNC(=O)c1cnc(NCC2(c3ncccc3F)CCC2)nc1 [2-{[2-({[(3-fluoro-2-pyridyl)cyclobutyl]methyl}amino)pyrimidin-5-yl]carbonylamino} acetic acid],D (D=>20 uM)
20,NC(=O)c1cnc(NC2(c3ncccc3F)CCC2)nc1C(F)(F)F [2-{[(3-fluoro(2-pyridyl))cyclobutyl]amino)-4-(trifluoromethyl)pyrimidine-5-carboxamide],D (D=>20 uM)
21,O=C(O)c1cnc(NC2(c3ncccc3F)CCC2)nc1C(F)(F)F [2-{[(3-fluoro(2-pyridyl))cyclobutyl]amino}-4-(trifluoromethyl)pyrimidine-5-carboxylic acid],D (D=>20 uM)
22,N#Cc1cnc(NC2(c3ncccc3F)CCC2)nc1 [2-{[(3-fluoro-2-pyridyl)cyclobutyl]amino} pyrimidine-5-carbonitrile],D (D=>20 uM)

# More lines, now with the values ahead:
row,Mean AC1.4,SMILES
1,D (D=>20 uM),NC(=O)c1ccc2nc(NC3(c4ncccc4F)CCC3)ncc2c1 [2-{[(3-fluoro-2-pyridyl)cyclobutyl]amino} quinazoline-6-carboxamide]
2,D (D=>20 uM),NC(=O)c1cnc(NC2(c3ncccc3F)CCC2)nc1 [2-{[(3-fluoro-2-pyridyl)cyclobutyl]amino}pyrimidine-5-carboxamide]
3,D (D=>20 uM),N#Cc1ccc2nc(NC3(c4ncccc4F)CCC3)ncc2c1 [2-{[(3-fluoro-2-pyridyl)cyclobutyl]amino}quinazoline-6-carbonitrile]
4,D (D=>20 uM),N#Cc1ccnc(NC2(c3ccc(F)cc3)CCC2)n1 [2-{[(4-fluorophenyl)cyclobutyl]amino} pyrimidine-4-carbonitrile]
5,C (C=10-20 uM),NC(=O)c1ccnc(NC2(c3ccc(F)cc3)CCC2)n1 [2-{[(4-fluorophenyl)cyclobutyl]amino} pyrimidine-4-carboxamide]
6,C (C=10-20 uM),N#Cc1cnc(NC2(c3ccc(F)cc3)CCC2)nc1 [2-{[(4-fluorophenyl)cyclobutyl]amino} pyrimidine-5-carbonitrile]
7,D (D=>20 uM),NC(=O)c1cnc(NC2(c3ccc(F)cc3)CCC2)nc1 [2-{[(4-fluorophenyl)cyclobutyl]amino} pyrimidine-5-carboxamide]
8,B (B=1-10 uM),NC(=O)c1cnc(NC2(c3ccc(F)cc3)CCC2)nc1C(F)(F)F [2-{[(4-fluorophenyl)cyclobutyl]amino}-4-(trifluoromethyl)pyrimidine-5-carboxamide]
9,D (D=>20 uM),O=C(O)c1cnc(NC2(c3ccc(F)cc3)CCC2)nc1C(F)(F)F [2-{[(4-fluorophenyl)cyclobutyl]amino}-4-(trifluoromethyl)pyrimidine-5-carboxylic acid]
10,D (D=>20 uM),C[S+]([O-])c1ccccc1C(C)(C)Nc1ncc(-c2cccc(C(N)=O)c2)cn1 (stereo not drawn) [3-(2-(2-(2-(methylsulfinyl)phenyl)propan-2-ylamino)pyrimidin-5-yl)benzamide]
11,D (D=>20 uM),C[S+]([O-])c1cccnc1C(C)(C)Nc1ncc(-c2cccc(C(N)=O)c2)cn1 (stereo not drawn) [3-(2-(2-(3-(methylsulfinyl)pyridin-2-yl)propan-2-ylamino)pyrimidin-5-yl)benzamide]
12,D (D=>20 uM),C[S+]([O-])c1ccc(C(C)(C)Nc2ncc(-c3cccc(C(N)=O)c3)cn2)cc1 (stereo not drawn) [3-(2-(2-(4-(methylsulfinyl)phenyl)propan-2-ylamino)pyrimidin-5-yl)benzamide]
13,D (D=>20 uM),NC(=O)c1cccc(-c2cnc(N)nc2)c1 [3-(2-aminopyrimidin-5-yl)benzamide]
14,B (B=1-10 uM),CC(C)(Nc1ncc(-c2cc(C(N)=O)ccc2F)cn1)c1cccnc1Cl [3-(2-{[1-(2-chloro(3-pyridyl))-isopropyl]amino}pyrimidin-5-yl)-4-fluorobenzamide]
